US7138361B2, “Herbicidal heterocycles” (E. I. du Pont de Nemours and Company, priority 2000, dated 2006)

What was measured:
Type in all cases: in vivo
[1] = tested on: barnyardgrass (Echinochloa crus-galli); experiment: Test C flooded paddy test; conditions: for Barnyardgrass plant response rating: Flooded Paddy, scale 0 to 100, 0 no effect, 100 complete control; for Plant response rating, Barnyardgrass: flooded paddy test, scale 0 to 100 (0 no effect, 100 complete control)
Procedure, shortened: (§1)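 Visually assessed vs untreated controls 12–14 d post-treatment (greenhouse). Flooded paddy plants were at the 2-leaf stage; scale 0 = no effect, 100 = complete control.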

rice (Oryza saliva) = experiment: Test C flooded paddy test; conditions: for Rice plant response rating: Flooded Paddy, scale 0 to 100, 0 no effect, 100 complete control; for Plant response rating, Rice: flooded paddy test, scale 0 to 100 (0 no effect, 100 complete control)
Procedure, shortened: as §1

Sunflower = experiment: Test C preemergence; conditions: Rate 500 g/ha, visual evaluation after 12 to 14 days
[2] = tested on: crabgrass (Digitaria sanguinalis); experiment: Test C preemergence; conditions: for Plant response rating, Crabgrass: scale 0 to 100, 0 no effect, 100 complete control; for Plant response rating (0 to 100), Crabgrass: visual evaluation after 12 to 14 days
Description: (§2) Seeds of plant species selected from bermudagrass (Cynodon dactylon), Surinam grass (Brachiaria decumbens), cocklebur (Xanthium strumarium), corn (Zea mays), crabgrass (Digitaria sanguinalis), woolly cupgrass (Eriochloa villosa), giant foxtail (Setaria faberii), goosegrass (Eleusine indica), johnsongrass (Sorghum halepense), kochia (Kochia scoparia), lambsquarters (Chenopodium album), morningglory (Ipomoea hederacea), yellow nutsedge (Cyperus esculentus), pigweed (Amaranthus retroflexus), common ragweed (Ambrosia elatior), soybean (Glycine max) and velvetleaf (Abutilon theophrasti) were planted and treated preemergence with test chemicals formulated in a non-phytotoxic solvent mixture which included a surfactant.
(§3) At the same time, plants selected from these crop and weed species and also winter barley (Hordeum vulgare), blackgrass (Alopecurus myosuroides), canary grass (Phalaris minor), chickweed (Stellaria media), downy brome (Bromus tectorum), green foxtail (Setaria viridis), Italian ryegrass (Lolium multiflorum), wheat (Triticum aestivum), wild oat (Avena fatua) and windgrass (Apera spica-venti) were treated with postemergence applications of some of the test chemicals formulated in the same manner. Plants ranged in height from 2 to 18 cm (1- to 4-leaf stage) for postemergence treatments. Plant species in the flooded paddy test consisted of rice (Oryza saliva), smallflower flatsedge (Cyperus difformis), duck salad (Heteranthera limosa) and barnyardgrass (Echinochloa crus-galli) grown to the 2-leaf stage for testing. Treated plants and controls were maintained in a greenhouse for 12 to 14 days, after which time all species were compared to controls and visually evaluated. Plant response ratings, summarized in Table C, are based on a scale of 0 to 100 where 0 is no effect and 100 is complete control. A dash (-) response means no test result.

[3] = tested on: velvetleaf (Abutilon theophrasti); experiment: Test C preemergence; conditions: preemergence; for Plant response rating, Velvetleaf: scale 0 to 100, 0 no effect, 100 complete control
Description: as §2, §3

[4] = tested on: morningglory (Ipomoea hederacea); experiment: Test C preemergence; conditions: for Plant response rating, Morningglory: scale 0 to 100, 0 no effect, 100 complete control
Description: as §2, §3

corn (Zea mays) = experiment: Test C preemergence; conditions: for Plant response rating, Corn: scale 0 to 100, 0 no effect, 100 complete control; for Plant response rating (0 to 100), Corn: visual evaluation after 12 to 14 days
Description: as §2, §3

Nightshade = experiment: Test C preemergence; conditions: scale 0 to 100, 0 no effect, 100 complete control
Description: as §2, §3

kochia (Kochia scoparia) = experiment: Test C preemergence; conditions: for Plant response rating, Kochia: scale 0 to 100, 0 no effect, 100 complete control; for Plant response rating (0 to 100), Kochia: visual evaluation after 12 to 14 days
Description: as §2, §3

[5] = tested on: johnsongrass (Sorghum halepense); experiment: Test C preemergence; conditions: for Plant response rating, Johnsongrass: scale 0 to 100, 0 no effect, 100 complete control; for Plant response rating (0 to 100), Johnsongrass: visual evaluation after 12 to 14 days
Description: as §2, §3

[6] = tested on: bermudagrass (Cynodon dactylon); experiment: Test C preemergence; conditions: for Plant response rating, Bermudagrass: scale 0 to 100, 0 no effect, 100 complete control; for Plant response rating (0 to 100 where 0 is no effect and 100 is complete control), Bermudagrass: visual evaluation after 12 to 14 days
Description: as §2, §3

[7] = tested on: cocklebur (Xanthium strumarium); experiment: Test C preemergence; conditions: for Plant response rating, Cocklebur: scale 0 to 100, 0 no effect, 100 complete control; for Plant response rating (0 to 100), Cocklebur: visual evaluation after 12 to 14 days
Description: as §2, §3

[8] = tested on: giant foxtail (Setaria faberii); experiment: Test C preemergence; conditions: for Plant response rating, Foxtail, Giant: scale 0 to 100, 0 no effect, 100 complete control; for Plant response rating (0 to 100), Foxtail, Giant: visual evaluation after 12 to 14 days
Description: as §2, §3

[9] = tested on: common ragweed (Ambrosia elatior); experiment: Test C preemergence; conditions: preemergence; for Plant response rating, Ragweed, Common: scale 0 to 100, 0 no effect, 100 complete control
Description: as §2, §3

soybean (Glycine max) = experiment: Test C preemergence; conditions: preemergence; for Plant response rating, Soybean: scale 0 to 100, 0 no effect, 100 complete control
Description: as §2, §3

[10] = tested on: yellow nutsedge (Cyperus esculentus); experiment: Test C preemergence; conditions: for Plant response rating, Nutsedge: scale 0 to 100, 0 no effect, 100 complete control
Description: as §2, §3

[11] = tested on: goosegrass (Eleusine indica); experiment: Test C preemergence; conditions: for Plant response rating, Goosegrass: scale 0 to 100, 0 no effect, 100 complete control; for Plant response rating (0 to 100), Goosegrass: visual evaluation after 12 to 14 days
Description: as §2, §3

[12] = tested on: pigweed (Amaranthus retroflexus); experiment: Test C preemergence; conditions: preemergence; for Plant response rating, Pigweed: scale 0 to 100, 0 no effect, 100 complete control
Description: as §2, §3

[13] = tested on: Surinam grass (Brachiaria decumbens); experiment: Test C preemergence; conditions: for Plant response rating, Surinam grass: scale 0 to 100, 0 no effect, 100 complete control; for Plant response rating (0 to 100), Surinam grass: visual evaluation after 12 to 14 days
Description: as §2, §3

[14] = tested on: woolly cupgrass (Eriochloa villosa); experiment: Test C preemergence; conditions: for Plant response rating, Cupgrass, Woolly: scale 0 to 100, 0 no effect, 100 complete control; for Plant response rating (0 to 100), Cupgrass, Woolly: visual evaluation after 12 to 14 days
Description: as §2, §3

[15] = Rate 500 g/ha, visual evaluation after 12 to 14 days
[16] = preemergence, Rate 500 g/ha, visual evaluation after 12 to 14 days

In the case of `COc1cc(OC)cc(N2CCC(n3ccc(C(C)(C)C)n3)C2=O)c1` (stereo not drawn) [Compound 71], the “Barnyardgrass plant response rating” value ([1]; Rate 250 g/ha) is reported as 0, the “Barnyardgrass plant response rating” value ([1]; Rate 500 g/ha) is reported as 80 and the “Plant response rating, Barnyardgrass” value ([1]; Rate 62 g/ha) is reported as 0. For the same molecule, the “Plant response rating, Barnyardgrass” value ([1]; Rate 125 g/ha) was 0, the “Rice plant response rating” value (rice (Oryza saliva); Rate 250 g/ha) was 0 and the “Rice plant response rating” value (rice (Oryza saliva); Rate 500 g/ha) was 60. The “Plant response rating, Rice” value (rice (Oryza saliva); Rate 62 g/ha) was 0, the “Plant response rating, Rice” value (rice (Oryza saliva); Rate 125 g/ha) was 0 and the “Plant response rating (0 to 100), Sunflower” value (Sunflower) was 20. For the same molecule, the “Plant response rating, Crabgrass” value ([2]; Rate 62 g/ha) was 40, the “Plant response rating (0 to 100), Crabgrass” value ([2]; preemergence, Rate 250 g/ha) was 100 and the “Plant response rating (0 to 100), Crabgrass” value ([2]; preemergence, Rate 500 g/ha) was 100. For the same molecule, the “Plant response rating, Crabgrass” value ([2]; preemergence, Rate 125 g/ha) was 100, the “Plant response rating (0 to 100), Velvetleaf” value [3, 15] was 0 and the “Plant response rating, Velvetleaf” value ([3]; Rate 125 g/ha) was 0. For the same molecule, the “Plant response rating, Velvetleaf” value ([3]; Rate 250 g/ha) was 0, the “Plant response rating, Morningglory” value ([4]; Rate 62 g/ha) was 0 and the “Plant response rating (0 to 100), Morningglory” value [4, 16] was 0. The “Plant response rating, Morningglory” value ([4]; preemergence, Rate 125 g/ha) was 0, the “Plant response rating, Morningglory” value ([4]; preemergence, Rate 250 g/ha) was 0 and the “Plant response rating, Corn” value (corn (Zea mays); Rate 62 g/ha) was 0. The “Plant response rating (0 to 100), Corn” value (corn (Zea mays); preemergence, Rate 250 g/ha) was 0, the “Plant response rating (0 to 100), Corn” value (corn (Zea mays); preemergence, Rate 500 g/ha) was 30 and the “Plant response rating, Corn” value (corn (Zea mays); preemergence, Rate 125 g/ha) was 0. For the same molecule, the “Plant response rating, Nightshade” value (Nightshade; Rate 62 g/ha) was 0, the “Plant response rating, Nightshade” value (Nightshade; Rate 125 g/ha) was 20 and the “Plant response rating, Nightshade” value (Nightshade; Rate 250 g/ha) was 30. For the same molecule, the “Plant response rating, Kochia” value (kochia (Kochia scoparia); Rate 62 g/ha) was 80, the “Plant response rating (0 to 100), Kochia” value (kochia (Kochia scoparia); preemergence, Rate 250 g/ha) was 100 and the “Plant response rating (0 to 100), Kochia” value (kochia (Kochia scoparia); preemergence, Rate 500 g/ha) was 100. The “Plant response rating, Kochia” value (kochia (Kochia scoparia); preemergence, Rate 125 g/ha) was 90, the “Plant response rating, Johnsongrass” value ([5]; Rate 62 g/ha) was 0 and the “Plant response rating (0 to 100), Johnsongrass” value ([5]; preemergence, Rate 250 g/ha) was 0. The “Plant response rating (0 to 100), Johnsongrass” value ([5]; preemergence, Rate 500 g/ha) was 40, the “Plant response rating, Johnsongrass” value ([5]; preemergence, Rate 125 g/ha) was 0 and the “Plant response rating, Bermudagrass” value ([6]; Rate 62 g/ha) was 30. For the same molecule, the “Plant response rating (0 to 100 where 0 is no effect and 100 is complete control), Bermudagrass” value ([6]; preemergence, Rate 250 g/ha) was 100, the “Plant response rating (0 to 100 where 0 is no effect and 100 is complete control), Bermudagrass” value ([6]; preemergence, Rate 500 g/ha) was 100 and the “Plant response rating, Bermudagrass” value ([6]; preemergence, Rate 125 g/ha) was 90. The “Plant response rating, Cocklebur” value ([7]; Rate 62 g/ha) was 0, the “Plant response rating (0 to 100), Cocklebur” value ([7]; preemergence, Rate 250 g/ha) was 30 and the “Plant response rating (0 to 100), Cocklebur” value ([7]; preemergence, Rate 500 g/ha) was 30. The “Plant response rating, Cocklebur” value ([7]; preemergence, Rate 125 g/ha) was 0, the “Plant response rating, Foxtail, Giant” value ([8]; Rate 62 g/ha) was 0 and the “Plant response rating (0 to 100), Foxtail, Giant” value ([8]; preemergence, Rate 250 g/ha) was 0. For the same molecule, the “Plant response rating (0 to 100), Foxtail, Giant” value ([8]; preemergence, Rate 500 g/ha) was 100, the “Plant response rating, Foxtail, Giant” value ([8]; preemergence, Rate 125 g/ha) was 90 and the “Plant response rating (0 to 100), Ragweed, Common” value [9, 15] was 30. For the same molecule, the “Plant response rating, Ragweed, Common” value ([9]; Rate 125 g/ha) was 0, the “Plant response rating, Ragweed, Common” value ([9]; Rate 250 g/ha) was 0 and the “Plant response rating (0 to 100), Soybean” value (soybean (Glycine max); [15]) was 0. For the same molecule, the “Plant response rating, Soybean” value (soybean (Glycine max); Rate 125 g/ha) was 0, the “Plant response rating, Soybean” value (soybean (Glycine max); Rate 250 g/ha) was 0 and the “Plant response rating, Nutsedge” value ([10]; Rate 62 g/ha) was 0. The “Plant response rating (0 to 100), Nutsedge” value [10, 16] was 70, the “Plant response rating, Nutsedge” value ([10]; preemergence, Rate 125 g/ha) was 30 and the “Plant response rating, Nutsedge” value ([10]; preemergence, Rate 250 g/ha) was 70. The “Plant response rating, Goosegrass” value ([11]; Rate 62 g/ha) was 30, the “Plant response rating (0 to 100), Goosegrass” value ([11]; preemergence, Rate 250 g/ha) was 100 and the “Plant response rating (0 to 100), Goosegrass” value ([11]; preemergence, Rate 500 g/ha) was 100. The “Plant response rating, Goosegrass” value ([11]; preemergence, Rate 125 g/ha) was 90, the “Plant response rating (0 to 100), Pigweed” value [12, 15] was 100 and the “Plant response rating, Pigweed” value ([12]; Rate 125 g/ha) was 0. For the same molecule, the “Plant response rating, Pigweed” value ([12]; Rate 250 g/ha) was 100, the “Plant response rating, Surinam grass” value ([13]; Rate 62 g/ha) was 30 and the “Plant response rating (0 to 100), Surinam grass” value ([13]; preemergence, Rate 250 g/ha) was 50. The “Plant response rating (0 to 100), Surinam grass” value ([13]; preemergence, Rate 500 g/ha) was 90, the “Plant response rating, Surinam grass” value ([13]; preemergence, Rate 125 g/ha) was 30 and the “Plant response rating, Cupgrass, Woolly” value ([14]; Rate 62 g/ha) was 0. For the same molecule, the “Plant response rating (0 to 100), Cupgrass, Woolly” value ([14]; preemergence, Rate 250 g/ha) was 100, the “Plant response rating (0 to 100), Cupgrass, Woolly” value ([14]; preemergence, Rate 500 g/ha) was 100 and the “Plant response rating, Cupgrass, Woolly” value ([14]; preemergence, Rate 125 g/ha) was 80.
